Reference: patent US20260232652A1, “COMBINATIONS OF DGK (DIACYLGLYCEROL KINASE) INHIBITORS” (priority 2023, published 2026)
Where “and” joins values, the source holds several entries; their conditions need not be identical. Identical values can stand only once.

Key:
[1] = target: T1, human DGKzeta (Homo sapiens, UniProt Q13574); test: Human DGKzeta kinase activity inhibition assay (ADP-Glo); type: biochemical; conditions: read-out: IC50 hDGKz
T1 construct: C-terminally FLAG-tagged, recombinant full-length human DGKζ; made in house; host or cells: baculovirus-infected insect cells
T1 sequence (Q13574 whole entry): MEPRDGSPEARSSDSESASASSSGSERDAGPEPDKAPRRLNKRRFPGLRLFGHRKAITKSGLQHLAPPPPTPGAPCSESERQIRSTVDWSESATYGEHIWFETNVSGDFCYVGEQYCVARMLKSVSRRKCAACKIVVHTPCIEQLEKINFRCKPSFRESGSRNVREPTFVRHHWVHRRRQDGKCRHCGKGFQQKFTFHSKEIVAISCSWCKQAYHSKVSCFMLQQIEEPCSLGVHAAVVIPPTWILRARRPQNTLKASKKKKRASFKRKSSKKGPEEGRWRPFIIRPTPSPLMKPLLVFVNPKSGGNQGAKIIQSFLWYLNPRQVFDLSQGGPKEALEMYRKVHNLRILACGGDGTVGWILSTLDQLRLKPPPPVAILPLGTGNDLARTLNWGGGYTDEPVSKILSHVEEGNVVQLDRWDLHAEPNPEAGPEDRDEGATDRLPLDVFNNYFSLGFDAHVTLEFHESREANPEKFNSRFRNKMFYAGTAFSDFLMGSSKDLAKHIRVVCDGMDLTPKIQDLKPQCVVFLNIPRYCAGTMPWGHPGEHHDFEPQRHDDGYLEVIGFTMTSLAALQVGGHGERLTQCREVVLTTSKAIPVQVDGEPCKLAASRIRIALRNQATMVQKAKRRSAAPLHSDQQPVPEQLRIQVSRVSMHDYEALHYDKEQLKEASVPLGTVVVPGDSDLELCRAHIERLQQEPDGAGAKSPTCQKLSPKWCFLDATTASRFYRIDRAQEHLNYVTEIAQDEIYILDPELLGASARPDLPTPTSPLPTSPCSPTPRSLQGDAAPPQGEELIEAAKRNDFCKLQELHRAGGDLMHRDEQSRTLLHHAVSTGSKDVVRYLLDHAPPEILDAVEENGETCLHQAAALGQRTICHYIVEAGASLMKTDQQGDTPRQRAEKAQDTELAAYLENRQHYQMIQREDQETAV
Procedure: Human diacylglycerol kinase zeta (DGKζ) inhibitory activity of compounds of the present invention was quantified employing the human DGKζ kinase activity assay as described in the following paragraphs. In essence, the enzyme activity was measured by quantification of the adenosine-di-phosphate (ADP) generated as a co-product of the enzyme reaction via the “ADP-Glo™ Kinase Assay” kit from the company Promega. This detection system works as follows: In a first step the adenosine-tri-phosphate (ATP) not consumed in the kinase reaction is quantitatively converted to cyclic adenosine-mono-phosphate (cAMP) employing an adenylate cyclase (“ADP-Glo-reagent”), then the adenylate cyclase is stopped and the ADP generated in the kinase reaction is converted to ATP, which subsequently generates in a luciferase-based reaction a glow-luminescence signal (“Kinase Detection Reagent”).
(§1) C-terminally FLAG-tagged, recombinant full-length human DGKζ (inhouse expressed in baculovirus infected insect cells, purified using anti-Flag pulldown and size exclusion chromatography) was used as enzyme. As an alternative, commercially available enzyme by Carnabio can be used. As substrate for the kinase, 1,2-dioleoyl-sn-glycerol, reconstituted in octyl-β-D-glucopyranoside micelles, was used. […] Then 35 volumes of 50 mM MOPS buffer (pH 7.4) were added to yield a solution of 0.28 mM 1,2 dioleoyl-sn-glycerol and 200 mM octyl-β-D-glucopyranoside, which was aliquoted, flash-frozen in liquid nitrogen, and stored at −20° C. until use.
For the assay 50 nl of a 100-fold concentrated solution of the test compound in dimethyl sulfoxide (DMSO, Sigma) was pipetted into either a white 1536-well or a white low-volume 384-well microtiter plate (both Greiner Bio-One, Frickenhausen, Germany). […] The concentration of DGKζ was adjusted depending of the activity of the enzyme lot and was chosen appropriate to have the assay in the linear range, a typical concentration is about 0.1 nM. The reaction was stopped by the addition of 2.5 μL of “ADP-Glo-reagent” (1 to 1.5 diluted with water) and the resulting mixture was incubated at 22° C. for 1 h to convert the ATP not consumed in the kinase reaction completely to cAMP. […] The amount of emitted light was taken as a measure for the amount of ADP generated and thereby for the activity of the DGKζ.

[2] = target: T2, human DGKalpha (Homo sapiens, UniProt P23743); test: Human DGKalpha kinase activity inhibition assay (ADP-Glo); type: biochemical; conditions: read-out: IC50 hDGKa
T2 construct: made in house; host or cells: baculovirus-infected Sf9 insect cells
T2 sequence (P23743 whole entry): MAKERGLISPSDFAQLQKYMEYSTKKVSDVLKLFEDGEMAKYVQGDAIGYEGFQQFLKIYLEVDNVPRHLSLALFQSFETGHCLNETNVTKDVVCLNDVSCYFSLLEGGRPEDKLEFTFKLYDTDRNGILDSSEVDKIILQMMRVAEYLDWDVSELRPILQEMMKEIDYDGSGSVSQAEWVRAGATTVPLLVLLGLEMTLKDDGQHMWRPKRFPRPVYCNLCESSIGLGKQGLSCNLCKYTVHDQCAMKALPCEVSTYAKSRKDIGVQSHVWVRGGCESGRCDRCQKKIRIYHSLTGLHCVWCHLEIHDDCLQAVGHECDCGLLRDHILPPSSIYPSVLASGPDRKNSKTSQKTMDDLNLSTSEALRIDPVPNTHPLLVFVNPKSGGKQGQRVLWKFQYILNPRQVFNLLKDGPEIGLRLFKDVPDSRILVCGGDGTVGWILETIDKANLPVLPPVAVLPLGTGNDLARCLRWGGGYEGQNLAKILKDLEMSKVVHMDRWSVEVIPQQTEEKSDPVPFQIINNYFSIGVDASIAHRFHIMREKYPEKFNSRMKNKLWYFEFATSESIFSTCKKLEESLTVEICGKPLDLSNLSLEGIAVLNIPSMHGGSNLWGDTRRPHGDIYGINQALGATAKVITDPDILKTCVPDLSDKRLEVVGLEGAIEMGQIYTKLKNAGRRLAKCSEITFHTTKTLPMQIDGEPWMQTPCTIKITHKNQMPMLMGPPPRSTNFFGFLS
Procedure: Human DGKalpha inhibitory activity of compounds of the present invention was quantified employing the human DGKalpha kinase activity assay as described in the following paragraphs. In essence, the enzyme activity was measured by quantification of the adenosine-di-phosphate (ADP) generated as a co-product of the enzyme reaction via the “ADP-Glo™ Kinase Assay” kit from the company Promega. This detection system works as follows: In a first step the ATP not consumed in the kinase reaction is quantitatively converted to cAMP employing an adenylate cyclase (“ADP-Glo-reagent”), then the adenylate cyclase is stopped and the ADP generated in the kinase reaction converted to ATP, which subsequently generates in a luciferase-based reaction a glow-luminescence signal (“Kinase Detection Reagent”).
as §1, with “DGKalpha (expressed” for “DGKζ (inhouse expressed”, “chromatography as described below, DGKa_hu_1)” for “chromatography)”, “As” for “As an alternative, commercially available enzyme by Carnabio can be used. As”, “kinase” for “kinase,”
For the assay 50 nl of a 100-fold concentrated solution of the test compound in dimethyl sulfoxide (DMSO, Sigma) was pipetted into either a white 1536-well or a white low-volume 384-well microtiter plate (both Greiner Bio-One, Frickenhausen, Germany). […] The concentration of DGKα was adjusted depending of the activity of the enzyme lot and was chosen appropriate to have the assay in the linear range, a typical concentration is about 0.1 nM. The reaction was stopped by the addition of […] of “ADP-Glo-reagent” (1 to 1.5 diluted with water) and the resulting mixture was incubated at 22° C. for 1 h to convert the ATP not consumed in the kinase reaction completely to cAMP. […] The amount of emitted light was taken as a measure for the amount of ADP generated and thereby for the activity of the DGKα.

[3] = tested on: glioblastoma multiforme (GBM) cells; conditions: concurrent administration; cited from earlier work

IC50 [1] | IC50 [2] | SMILES | growth of intracranially injected GBM tumors [3]
> 20000 nM |  | CNC(=O)c1c(N2CCC(c3nc4cc(C)ccc4o3)CC2)c2ccccc2n(C)c1=O [Example 448, N,1-dimethyl-4-[4-(5-methyl-1,3-benzoxazol-2-yl)piperidin-1-yl]-2-oxo-1,2-dihydroquinoline-3-carboxamide] | 
7.1 nM | > 12.2 µM | CC(C(N)=O)N(c1ccc(F)cc1)c1nc(N)c(C(=O)c2ccc(OC(F)(F)F)cc2)s1 (single isomer, unassigned) [Example 40.2, 2-(N-[4-amino-5-[4-(trifluoromethoxy)benzoyl]thiazol-2-yl]-4-fluoro-anilino)propanamide] | 
> 20000 nM |  | COc1ccc(C2CCN(c3c(C(N)=O)c(=O)n(C)c4ccccc34)CC2)cc1 [Example 112, 4-[4-(4-methoxyphenyl)piperidin-1-yl]-1-methyl-2-oxo-1,2-dihydroquinoline-3-carboxamide] | 
 |  | Cc1nc2sccn2c(=O)c1CCN1CCC(=C(c2ccccc2)c2ccc(F)cc2)CC1 [Example R59022] | decreased growth of intracranially injected GBM tumors
3.9 nM and 6.7 nM | > 20 µM | CC(C(N)=O)N(c1ccc(F)cc1)c1nc(N)c(C(=O)c2ccc(OC(F)F)cc2)s1 (single isomer, unassigned) [Example 44.2, 2-(N-[4-amino-5-[4-(difluoromethoxy)benzoyl]thiazol-2-yl]-4-fluoro-anilino)propanamide] | 
> 20000 nM |  | Cc1ccc2oc(C3CCN(c4c(C(N)=O)c(=O)n(C)c5ccccc45)CC3)nc2c1 [Example 107, 1-methyl-4-[4-(5-methyl-1,3-benzoxazol-2-yl)piperidin-1-yl]-2-oxo-1,2-dihydroquinoline-3-carboxamide] | 
46 nM | > 15 µM | CC(C(N)=O)N(c1ccc(F)cc1)c1nc(N)c(C(=O)c2ccc(C(F)(F)F)nc2)s1 (single isomer, unassigned) [Example 29.2, 2-(N-[4-amino-5-[6-(trifluoromethyl)pyridine-3-carbonyl]thiazol-2-yl]-4-fluoro-anilino)propanamide] | 
8.2 nM and 8.9 nM | > 13.3 µM | COc1ccc(C(=O)c2sc(N(c3ccc(F)c(F)c3)C(C)C(N)=O)nc2N)cc1 (single isomer, unassigned) [Example 51.1, 2-(N-[4-amino-5-(4-methoxybenzoyl)thiazol-2-yl]-3,4-difluoro-anilino)propanamide] | 
> 20000 nM |  | Cn1c(=O)c(C#N)c(N2CCC(c3nc4ccc(F)cc4o3)CC2)c2ccccc21 [Example 4, 4-[4-(6-fluoro-1,3-benzoxazol-2-yl)piperidin-1-yl]-1-methyl-2-oxo-1,2-dihydroquinoline-3-carbonitrile] | 
